According to patent US20230322723A1, “COMPOUNDS FOR SUPPRESSING EGFR MUTANT CANCER AND PHARMACEUTICAL USE THEREOF” (J2H BIOTECH INC., priority 2020, published 2023):

Legend:
EGFR^L858R+T790M+C797S = molecular target: T1, EGFR^L858R+T790M+C797S (Homo sapiens, UniProt P00533, C797S/L858R/T790M); assay: EGFR protein degradation test (Western blot) in Ba/F3 cells expressing mutant EGFR L858R+T790M+C797S (LTC); type: cell-based; details: compounds at 0.1 μM and 1 μM, 24 hours, Western blot with EGFR antibody
T1 construct: expressed in transfected cells; host or cells: Ba/F3
Description: (§1) The ability of the compounds of the present invention to degrade the mutant EGFR protein was confirmed in Ba/F3 cells expressing normal EGFR, mutant EGFR^del19+T790M+C797S or mutant EGFR^L858R+T790M+C797S. A Western blot test using the EGFR antibody was performed.
(§2) Specifically, Ba/F3 cells expressing EGFR were cultured in RPMI 1640 (Gibco, NY, USA) containing 10% fetal bovine serum (FBS, Gibco, NY, USA). Cells expressing normal EGFR, mutant EGFR^del19+T790M+C797S or mutant EGFR^L858R+T790M+C797S were treated with the compounds of the present invention at concentrations of 0.1 μM and 1 μM, respectively, for 24 hours. After that, it was washed twice with phosphate buffered saline (PBS) and SDS-PAGE was performed with 30 μg of cell lysate. After the protein separated on the gel was transferred to a nitrocellulose membrane, the expression level of the EGFR protein was confirmed using an EGFR antibody (Santa Cruz biotechnology, Santacruz, CA, USA). EGFR bands separated by Western blotting were quantitatively analyzed with Fluo-S MultiImager (Bio-Rad, Hercules, CA, USA).

EGFR^del19+T790M+C797S = assay: EGFR protein degradation test (Western blot) in Ba/F3 cells expressing mutant EGFR del19+T790M+C797S (DTC); type: cell-based; details: compounds at 0.1 μM and 1 μM, 24 hours, Western blot with EGFR antibody
Description: as §1, §2

T1 sequence (P00533 25-1210 T790M/C797S/L858R): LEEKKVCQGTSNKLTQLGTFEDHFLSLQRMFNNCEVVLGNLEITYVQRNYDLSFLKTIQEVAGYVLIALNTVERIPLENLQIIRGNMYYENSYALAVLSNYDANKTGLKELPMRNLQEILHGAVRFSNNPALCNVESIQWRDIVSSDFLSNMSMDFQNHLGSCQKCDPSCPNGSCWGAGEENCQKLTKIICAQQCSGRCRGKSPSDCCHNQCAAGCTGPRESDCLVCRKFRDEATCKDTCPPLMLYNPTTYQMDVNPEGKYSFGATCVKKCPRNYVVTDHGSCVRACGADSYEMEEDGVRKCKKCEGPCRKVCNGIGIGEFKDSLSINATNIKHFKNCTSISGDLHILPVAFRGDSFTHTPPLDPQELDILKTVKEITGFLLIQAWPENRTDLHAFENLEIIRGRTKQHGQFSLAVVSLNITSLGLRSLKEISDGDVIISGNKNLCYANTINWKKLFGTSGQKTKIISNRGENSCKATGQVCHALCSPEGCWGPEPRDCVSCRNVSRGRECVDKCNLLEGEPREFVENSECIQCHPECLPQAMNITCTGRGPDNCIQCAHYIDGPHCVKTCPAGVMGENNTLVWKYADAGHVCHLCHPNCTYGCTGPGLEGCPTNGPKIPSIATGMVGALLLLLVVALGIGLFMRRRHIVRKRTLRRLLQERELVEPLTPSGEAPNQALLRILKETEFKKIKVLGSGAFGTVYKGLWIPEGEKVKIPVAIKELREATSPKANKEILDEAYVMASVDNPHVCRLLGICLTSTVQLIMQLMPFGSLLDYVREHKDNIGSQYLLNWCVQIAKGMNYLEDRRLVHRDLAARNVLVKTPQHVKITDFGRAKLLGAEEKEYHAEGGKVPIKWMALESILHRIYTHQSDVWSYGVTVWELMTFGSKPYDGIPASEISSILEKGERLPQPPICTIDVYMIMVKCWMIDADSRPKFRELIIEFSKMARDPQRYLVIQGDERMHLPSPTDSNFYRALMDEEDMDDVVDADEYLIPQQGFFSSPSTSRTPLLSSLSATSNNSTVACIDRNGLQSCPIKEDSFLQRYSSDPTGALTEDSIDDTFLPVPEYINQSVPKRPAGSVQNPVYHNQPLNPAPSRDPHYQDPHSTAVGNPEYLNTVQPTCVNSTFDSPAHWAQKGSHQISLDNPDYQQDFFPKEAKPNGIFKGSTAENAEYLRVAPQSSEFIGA

SMILES: COc1cc(N2CCC3(CCN(CC(=O)N[C@H](C(=O)N4C[C@H](O)CC4C(=O)NCc4ccc(-c5scnc5C)cc4)C(C)(C)C)CC3)CC2)ccc1Nc1ncc(Cl)c(Nc2ccccc2N(C)S(C)(=O)=O)n1 (stereo in doubt) [Compound 31, (2R,4R)-1-((S)-2-(2-(9-(4-((5-chloro-4-((2-(N-methylmethylsulfonamido)phenyl)amino)pyrimidin-2-yl)amino)-3-methoxyphenyl)-3,9-diazaspiro[5,5]undecan-3-yl)acetamido)-3,3-dimethylbutanoyl)-4-hydroxy-N-(4-(4-methylthiazol-5-yl)benzyl)pyrrolidin-2-carboxamide]
- LTC (EGFR^L858R+T790M+C797S) protein degradation (EGFR^L858R+T790M+C797S): + (Protein degradation 20~80%)
- DTC (EGFR^del19+T790M+C797S) protein degradation (EGFR^del19+T790M+C797S): ++ (Protein degradation > 80%)

SMILES: COc1cc(N2CCN(CC3CCN(CC(=O)N[C@H](C(=O)N4C[C@H](O)CC4C(=O)NCc4ccc(-c5scnc5C)cc4)C4CC4)CC3)CC2)ccc1Nc1ncc(Cl)c(Nc2ccccc2N(C)S(C)(=O)=O)n1 (stereo in doubt) [Compound 55, (2R,4R)-1-((S)-2-(2-(4-((4-(4-((5-chloro-4-((2-(N-methylmethylsulfonamido)phenyl)amino)pyrimidin-2-yl)amino)-3-methoxyphenyl)piperazin-1-yl)methyl)piperidin-1-yl)acetamido)-2-cyclopropylacetyl)-4-hydroxy-N-(4-(4-methylthiazol-5-yl)benzyl)pyrrolidin-2-carboxamide]
- LTC (EGFR^L858R+T790M+C797S) protein degradation (EGFR^L858R+T790M+C797S): − (Protein degradation < 20%)
- DTC (EGFR^del19+T790M+C797S) protein degradation (EGFR^del19+T790M+C797S): − (Protein degradation < 20%)

SMILES: COc1cc(N2CCN(CC3CCN(CC(=O)N[C@H](C(=O)N4C[C@H](O)CC4C(=O)NCc4ccc(-c5scnc5C)cc4)C(C)C)CC3)CC2)ccc1Nc1ncc(Cl)c(Nc2ccccc2N(C)S(C)(=O)=O)n1 (stereo in doubt) [Compound 56, (2R,4R)-1-((2-(4-((4-(4-((5-chloro-4-((2-(N-methylmethylsulfonamido)phenyl)amino)pyrimidin-2-yl)amino)-3-methoxyphenyl)piperazin-1-yl)methyl)piperidin-1-yl)acetyl)-L-valyl)-4-hydroxy-N-(4-(4-methylthiazol-5-yl)benzyl)pyrrolidin-2-carboxamide]
- LTC (EGFR^L858R+T790M+C797S) protein degradation (EGFR^L858R+T790M+C797S): − (Protein degradation < 20%)
- DTC (EGFR^del19+T790M+C797S) protein degradation (EGFR^del19+T790M+C797S): + (Protein degradation 20~80%)

SMILES: COc1cc(N2CCN(CCCCC(=O)Nc3cccc4c3C(=O)N(C3CCC(=O)NC3=O)C4=O)CC2)ccc1Nc1ncc(Cl)c(Nc2ccccc2N(C)S(C)(=O)=O)n1 (centres unmarked) [Compound 1, 5-(4-(4-((5-chloro-4-((2-(N-methylmethylsulfonamido)phenyl)amino)pyrimidin-2-yl)amino)-3-methoxyphenyl)piperazin-1-yl)-N-(2-(2,6-dioxopiperidin-3-yl)-1,3-dioxoisoindolin-4-yl)pentanamide]
- LTC (EGFR^L858R+T790M+C797S) protein degradation (EGFR^L858R+T790M+C797S): − (Protein degradation < 20%)
- DTC (EGFR^del19+T790M+C797S) protein degradation (EGFR^del19+T790M+C797S): − (Protein degradation < 20%)

SMILES: COc1cc(N2CCC(N3CCN(CCCCC(=O)Nc4cccc5c4C(=O)N(C4CCC(=O)NC4=O)C5=O)CC3)CC2)ccc1Nc1ncc(Cl)c(Nc2ccccc2N(C)S(C)(=O)=O)n1 (centres unmarked) [Compound 2, 5-(4-(1-(4-((5-chloro-4-((2-(N-methylmethylsulfonamido)phenyl)amino)pyrimidin-2-yl)amino)-3-methoxyphenyl)piperidin-4-yl)piperazin-1-yl)-N-(2-(2,6-dioxopiperidin-3-yl)-1,3-dioxoisoindolin-4-yl)pentanamide]
- LTC (EGFR^L858R+T790M+C797S) protein degradation (EGFR^L858R+T790M+C797S): − (Protein degradation < 20%)
- DTC (EGFR^del19+T790M+C797S) protein degradation (EGFR^del19+T790M+C797S): + (Protein degradation 20~80%)

SMILES: COc1cc(N2CCC(N(C)CCCCOc3cccc4c3C(=O)N(C3CCC(=O)NC3=O)C4=O)CC2)ccc1Nc1ncc(Cl)c(Nc2ccccc2N(C)S(C)(=O)=O)n1 (centres unmarked) [Compound 3, N-(2-((5-chloro-2-((4-(4-((4-((2-(2,6-dioxopiperidin-3-yl)-1,3-dioxoisoindolin-4-yl)oxy)butyl)(methyl)amino)piperidin-1-yl)-2-methoxyphenyl)amino)pyrimidin-4-yl)amino)phenyl)-N-methylmethanesulfonamide]
- LTC (EGFR^L858R+T790M+C797S) protein degradation (EGFR^L858R+T790M+C797S): − (Protein degradation < 20%)
- DTC (EGFR^del19+T790M+C797S) protein degradation (EGFR^del19+T790M+C797S): − (Protein degradation < 20%)

SMILES: COc1cc(N2CCN(CCCCCCCCCCC(=O)Nc3cccc4c3C(=O)N(C3CCC(=O)NC3=O)C4=O)CC2)ccc1Nc1ncc(Cl)c(Nc2ccccc2N(C)S(C)(=O)=O)n1 (centres unmarked) [Compound 4, 11-(4-(4-((5-chloro-4-((2-(N-methylmethylsulfonamido)phenyl)amino)pyrimidin-2-yl)amino)-3-methoxyphenyl)piperazin-1-yl)-N-(2-(2,6-dioxopiperidin-3-yl)-1,3-dioxoisoindolin-4-yl)undecanamide]
- LTC (EGFR^L858R+T790M+C797S) protein degradation (EGFR^L858R+T790M+C797S): − (Protein degradation < 20%)
- DTC (EGFR^del19+T790M+C797S) protein degradation (EGFR^del19+T790M+C797S): − (Protein degradation < 20%)

SMILES: COc1cc(N2CCC(N3CCN(CCCCCCCCCCC(=O)Nc4cccc5c4C(=O)N(C4CCC(=O)NC4=O)C5=O)CC3)CC2)ccc1Nc1ncc(Cl)c(Nc2ccccc2N(C)S(C)(=O)=O)n1 (centres unmarked) [Compound 5, 11-(4-(1-(4-((5-chloro-4-((2-(N-methylmethylsulfonamido)phenyl)amino)pyrimidin-2-yl)amino)-3-methoxyphenyl)piperidin-4-yl)piperazin-1-yl)-N-(2-(2,6-dioxopiperidin-3-yl)-1,3-dioxoisoindolin-4-yl)undecanamide]
- LTC (EGFR^L858R+T790M+C797S) protein degradation (EGFR^L858R+T790M+C797S): − (Protein degradation < 20%)
- DTC (EGFR^del19+T790M+C797S) protein degradation (EGFR^del19+T790M+C797S): − (Protein degradation < 20%)

SMILES: COc1cc(N2CCN(CCCCC(=O)N[C@H](C(=O)N3C[C@H](O)C[C@@H]3C(=O)NCc3ccc(-c4scnc4C)cc3)C(C)(C)C)CC2)ccc1Nc1ncc(Cl)c(Nc2ccccc2N(C)S(C)(=O)=O)n1 [Compound 6, (2R,4R)-1-((S)-2-(5-(4-(4-((5-chloro-4-((2-(N-methylmethylsulfonamido)phenyl)amino)pyrimidin-2-yl)amino)-3-methoxyphenyl)piperazin-1-yl)pentanamido)3,3-dimethylbutanoyl)4-hydroxy-N-(4-(4-methylthiazol-5-yl)benzyl)pyrrolidin-2-carboxamide]
- LTC (EGFR^L858R+T790M+C797S) protein degradation (EGFR^L858R+T790M+C797S): − (Protein degradation < 20%)
- DTC (EGFR^del19+T790M+C797S) protein degradation (EGFR^del19+T790M+C797S): + (Protein degradation 20~80%)

SMILES: COc1cc(N2CCC(N3CCN(CCCCC(=O)N[C@H](C(=O)N4C[C@H](O)C[C@@H]4C(=O)NCc4ccc(-c5scnc5C)cc4)C(C)(C)C)CC3)CC2)ccc1Nc1ncc(Cl)c(Nc2ccccc2N(C)S(C)(=O)=O)n1 [Compound 7, (2R,4R)-1-((S)-2-(5-(4-(1-(4-((5-chloro-4-((2-(N-methylmethylsulfonamido)phenyl)amino)pyrimidin-2-yl)amino)-3-methoxyphenyl)piperidin-4-yl)piperazin-1-yl)pentanamido)-3,3-dimethylbutanoyl)-4-hydroxy-N-(4-(4-methylthiazol-5-yl)benzyl)pyrrolidin-2-carboxamide]
- LTC (EGFR^L858R+T790M+C797S) protein degradation (EGFR^L858R+T790M+C797S): − (Protein degradation < 20%)
- DTC (EGFR^del19+T790M+C797S) protein degradation (EGFR^del19+T790M+C797S): + (Protein degradation 20~80%)

SMILES: COc1cc(N2CCN(CCOCCOCC(=O)Nc3cccc4c3C(=O)N(C3CCC(=O)NC3=O)C4=O)CC2)ccc1Nc1ncc(Cl)c(Nc2ccccc2N(C)S(C)(=O)=O)n1 (centres unmarked) [Compound 8, 2-(2-(2-(4-(4-((5-chloro-4-((2-(N-methylmethylsulfonamido)phenyl)amino)pyrimidin-2-yl)amino)-3-methoxyphenyl)piperazin-1-yl)ethoxy)ethoxy)-N-(2-(2,6-dioxopiperidin-3-yl)-1,3-dioxoisoindolin-4-yl)acetamide]
- LTC (EGFR^L858R+T790M+C797S) protein degradation (EGFR^L858R+T790M+C797S): − (Protein degradation < 20%)
- DTC (EGFR^del19+T790M+C797S) protein degradation (EGFR^del19+T790M+C797S): − (Protein degradation < 20%)

SMILES: COc1cc(N2CCC(N3CCN(CCOCCOCC(=O)Nc4cccc5c4C(=O)N(C4CCC(=O)NC4=O)C5=O)CC3)CC2)ccc1Nc1ncc(Cl)c(Nc2ccccc2N(C)S(C)(=O)=O)n1 (centres unmarked) [Compound 9, 2-(2-(2-(4-(1-(4-((5-chloro-4-((2-(N-methylmethylsulfonamido)phenyl)amino)pyrimidin-2-yl)amino)-3-methoxyphenyl)piperidin-4-yl)piperazin-1-yl)ethoxy)ethoxy)-N-(2-(2,6-dioxopiperidin-3-yl)-1,3-dioxoisoindolin-4-yl)acetamide]
- LTC (EGFR^L858R+T790M+C797S) protein degradation (EGFR^L858R+T790M+C797S): − (Protein degradation < 20%)
- DTC (EGFR^del19+T790M+C797S) protein degradation (EGFR^del19+T790M+C797S): − (Protein degradation < 20%)

SMILES: COc1cc(N2CCN(CCOCCOCC(=O)N[C@H](C(=O)N3C[C@H](O)C[C@@H]3C(=O)NCc3ccc(-c4scnc4C)cc3)C(C)(C)C)CC2)ccc1Nc1ncc(Cl)c(Nc2ccccc2N(C)S(C)(=O)=O)n1 [Compound 10, (2R,4R)-1-((S)-2-(2-(2-(2-(4-(4-((5-chloro-4-((2-(N-methylmethylsulfonamido)phenyl)amino)pyrimidin-2-yl)amino)-3-methoxyphenyl)piperazin-1-yl)ethoxy)ethoxy)acetamido)-3,3-dimethylbutanoyl)-4-hydroxy-N-(4-(4-methylthiazol-5-yl)benzyl)pyrrolidin-2-carboxamide]
- LTC (EGFR^L858R+T790M+C797S) protein degradation (EGFR^L858R+T790M+C797S): − (Protein degradation < 20%)
- DTC (EGFR^del19+T790M+C797S) protein degradation (EGFR^del19+T790M+C797S): − (Protein degradation < 20%)
